Measured values as given in patent US5236955A, “Anti-fungal agent” (Washington University, priority 1992, dated 1993).

Assays:
Format in all cases: cell-based
[1] = tested on: C. neoformans N-myristoylproteins; experiment: Metabolic labeling of cellular N-myristoylproteins with tritiated fatty acids; details: tritiated analog, 1 h, 30° C.
Description: (§1) Cells were labeled for 1 h with fatty acids of equal specific activity. Total cellular proteins were reduced, denatured and subjected to SDS-PAGE. Gels were treated overnight with 1 N hydrocylamine (pH 10) at room temperature followed by EN^3 HANCE. Fluorography was performed at -80° C. The exposure time for all gels was identical (2 weeks) as was the total amount of cellular protein added to each lane (100 μg).
(§2) Analysis of the incorporation of exogenous fatty acids into cellular proteins--Cultures of S. cerevisiae YM2061, C. albicans B311, and C. neoformans L210425 were grown overnight at 30° C. in YPD or SAB broth. In the morning, C. albicans and C. neoformans were diluted to an A600 =0.6. All cultures were subsequently shaken at 30° C. until they achieved an A600 =1.2. A 5 ml aliquot of each culture was then incubated at 30° C. with 100 μCi/ml of either [9,10(n)^3 H]myristate (NEN Research Products, Dupont, Boston, Mass.); [6,7(n)^3 H]4-oxatetradecanoate; [9,10(n)^3 H]6-oxatetradecanoate;[9,10(n)^3 H]11-oxatetradecanoate; or [10,11(n)^3 H]13-oxatetradecanoate (the final specific activity of all tritiated fatty acids=30 Ci/mmol, their final concentration=3.3 μM). The cultures were then chilled on ice for 5 min and the cells harvested by centrifugation at 4000×g for 5 min. The pellet was washed by gentle vortexing in 1 ml of phosphate buffered saline (PBS, maintained at 4° C.). The yeast cells were then pelleted by centrifugation (as above) and broken open by vortexing with 500 μm glass beads in a 200 μl solution containing 240 mM Tris-HCl, pH 6.8, 2% SDS, 0.4% β-mercaptoethanol, 0.002% bromophenol blue, and 10% glycerol. The solution was then boiled for 5 min and cellular debris was removed by centrifugation at 12,000×g for 10 min. One hundred μg [Lowry et al., J. Biol. Chem. 193, 265-275 (1951)] of lysate protein from each sample was subjected to denaturation, reduction and electrophoresis through 12% polyacrylamide gels containing 0.1% SDS [Laemmli, Nature 227, 680-685 (1970)]. Duplicate gels were incubated overnight with 1M Tris, pH 7.4, or 1N hydroxylamine, pH 10. Fluorography was performed by treating gels with EN^3 HANCE (NEN Research Products, Dupont) and, following drying, exposing them to Kodak XAR film at -80° C.

[2] = tested on: S. cerevisiae N-myristoylproteins; experiment: as above; details: tritiated analog, 1 h, 30° C.
Description: as §1, §2

[3] = tested on: C. albicans N-myristoylproteins; experiment: as above; details: tritiated analog, 1 h, 30° C.
Description: as §1, §2

C. albicans lipids = experiment: Incorporation of label into total cellular lipids; details: 1 hr, 30° C.
Description: (§3) Cells were incubated with the indicated [^3 H]fatty acid (specific activity=30 Ci/mmol, 100 μCi/ml media) for 1 h at 30° C. After the organisms were pelleted and washed, spheroplasts were prepared and total lipids extracted. Tests were done on two separate occasions. The incorporation of label from each of the oxatetradecanoic acid analogs and from palmitate into total cellular lipids is expressed as a percentage of the total amount of label incorporated from [^3 H]myristate.
(§4) Analysis of the incorporation of exogenous fatty acids into cellular phospholipids and neutral lipids--Five ml cultures were labeled with each of the 5 tritiated fatty acids or with [9,10(n)^3 H]palmitate (30 Ci/mmol) at 30° C. for 60 min (S. cerevisiae and C. albicans) or for 75 min (C. neoformans) as described in the preceding paragraph. S. cerevisiae and C. albicans cells were then pelleted by centrifugation at 4000×g for 5 min. and washed first in water followed by a wash with 1M sorbitol. […]
(§5) Dried lipids were resuspended in 500 μl CHCl3 :MeOH(1:1). A 2 μl aliquot was counted in a scintillation counter to determine the extent of incorporation of label into cellular lipids. […]

C. neoformans lipids = experiment: Incorporation of label into total cellular lipids; details: 1 hr, 30° C.
Description: as §3, §4, §5

Compound: CCCCCCCCCCOCCC(=O)O [O4, 4-oxatetradecanoic acid]
- labeling of C. neoformans N-myristoylproteins versus [3H]myristate [1]: comparable labeling
- incorporation into the 55 kDa Gpal polypeptide [2]: is incorporated
- labeling of S. cerevisiae N-myristoylproteins versus [3H]myristate [2]: more intense labeling
- labeling of the 20 kDa Arfs [2]: comparable intensity
- labeling of C. albicans N-myristoylproteins versus [3H]myristate [3]: more intense labeling
- label incorporated into C. albicans lipids, of the amount observed with [3H]myristate (C. albicans lipids): 27-28%
- label incorporated into C. neoformans lipids, of the amount observed with [3H]myristate (C. neoformans lipids): 27-28%
